Patent US7897759B2, “Metabolically stable puromycin analogs” (MUSC Foundation for Research Development, priority 2007, dated 2011)

How the values were obtained:
[1] = tested on: breast cancer (MCF-7) cells; experiment: SRB cytotoxicity assay in MCF-7 cells; format: cell-based; conditions: 72 h, FIG. 1
Protocol: Dump media and wash wells with PBS. Add approx 100 μL 10% TCA to wells using squirt bottle. Incubate at 4° C. for 30 minutes to 1 hour. Dump TCA and wash plate 5 times with water (use beaker for washes). Add 100 ul SRB dye to wells. Incubate at room temperature for 30 minutes. Dump dye and wash plate 4 times with 1% acetic acid (use beaker for washes). Add 200 μL Tris Base to wells. Incubate at room temperature with agitation for at least 1 hour. Use Softmax pro plate reader with SRB560.
MCF-7 cells were plated at a density of 50,000 cells/well (99 μL/well) in a 96-well microtiter plate and allowed to adhere at 37° C. for 4 h. The drug (dissolved in 1 μL of DMSO/medium solution) was added and cells were incubated at 37° C. for 72 h. 100 μL of a 10% solution of trichloroacetic acid was then added and the cells were incubated for 1 h at 4° C. The supernatant was removed and the plate was washed 5 times with water. 100 μL of SRB dye (Promega) was added and the plate was incubated at rt for 30 min. The dye was removed and the plate was washed 4 times with 1% acetic acid solution. 200 μL of Tris Base was added, and the plate was incubated at rt with agitation for 1 h. Absorbance was read at 560 nm.

[2] = tested on: leukemia (HL-60) cells; experiment: MTS cytotoxicity assay in HL-60 cells; format: cell-based; conditions: 72 h, FIG. 2
Protocol: HL-60 cells were plated at a density of 4,000 cells/well (99 μL/well) in a 96-well microtiter plate. The drug (dissolved in 1 μL of DMSO/medium solution) was added and cells were incubated at 37° C. for 72 h. 20 μL of a solution of MTS/PMS (Promega, 5% PMS/MTS) was then added, the cells were incubated for 1 h, after which absorbance was read at 490 nm.

[3] = Body weight / toxicity in murine mammary tumor model; format: in vivo
Protocol: Model: JC murine mammary adenocarcinoma cells growing in Balb/c mice.
(§1) Treatment: Drug was administered by intraperitoneal injection on days 7, and 12 at 50 mg/kg dissolved in 50% DMSO:50% PBS.

[4] = tested on: JC murine mammary adenocarcinoma cells growing in Balb/c mice; experiment: Antitumor effects in murine mammary tumor model; format: in vivo; conditions: 50 mg/kg intraperitoneal on days 7 and 12, FIG. 3
Protocol: Model: JC murine mammary adenocarcinoma cells growing in Balb/c mice. Treatment is started when tumor are small, typically ˜20 mm3.
as §1

[5] = tested on: Bacillus cereus ATCC 10987; conditions: B. cereus; Gilbert et al., Tetrahedron 2005; cited from earlier work
[6] = tested on: Bacillus subtilis ATCC 6633; conditions: B. subtilis; Gilbert et al., Tetrahedron 2005; cited from earlier work

Row | SMILES | cytotoxic activity (killing curve) versus puromycin [1] | cytotoxic activity (killing curve) versus puromycin [2] | toxicity ([3]; 50 mg/kg intraperitoneal on days 7 and 12) | effect on body weight ([3]; 50 mg/kg intraperitoneal, during the treatment period (or after), FIG. 4) | effect on tumor growth [4] | antimicrobial activity (MIC) [5] | antimicrobial activity (MIC) [6]
1 | CN(C)c1ncnc2c1ncn2[C@@H]1O[C@H](CO)[C@H](CC(=O)[C@@H](N)Cc2ccccc2)C1O (stereo partly drawn) [GG-48, 9-{3-[1-(3-amino-2-oxo-4-phenyl)butyl]-3-deoxy-D-ribofuranosyl}-6-dimethylaminopurine] | killing curves overlapping those of puromycin | killing curves overlapping those of puromycin | no obvious toxicity | no loss of body weight | suppressed tumor growth | – | –
2 | COc1ccc(C[C@H](N)C(=O)N[C@H]2[C@@H](O)[C@H](n3cnc4c(N(C)C)ncnc43)O[C@@H]2CO)cc1 [puromycin] | – | – | – | – | – | 3.13 µg/mL | 3.13 µg/mL
